Test results reported in US20230242948A1, “OLEIC ACID PRODUCED FROM MICROORGANISM AND METHOD FOR PRODUCING OLEIC ACID USING MICROORGANISM” (KOREA INSTITUTE OF SCIENCE AND TECHNOLOGY, priority 2022, published 2023).

Tests used:
Assay type in all cases: cell-based
[1] = tested on: wild-type Yarrowia lipolytica (ATCC MYA-2613); test: Culture of wild-type lipid-producing microorganism in glucose minimal medium with or without hexanoic acid (Test Example 1); conditions: 1 g/L hexanoic acid
Procedure: (§1) As an exemplary embodiment of the present disclosure, wild-type Yarrowia lipolytica (microorganism accession number ATCC MYA-2613) was inoculated to a minimal medium containing glucose as a carbon source (20 g/L glucose, 6.7 g/L yeast nitrogen base, CSM-ura (MP Biomedicals, Solon, USA), pH 6.8 potassium phosphate buffer) and supplemented with 1 g/L hexanoic acid. Then shaking culture was conducted at 28° C. and 200 rpm. After culturing for 144-168 hours, the microorganism was separated from the culture through centrifugation.
as §1, with “After inoculating” for “As an exemplary embodiment of the present disclosure,”, “MYA-2613)” for “MYA-2613) was inoculated”, “buffer),” for “buffer) and supplemented with 1 g/L hexanoic acid. Then”
(§2) In order to investigate the consumption of the carbon source in the medium and the content of the produced lipids depending on the addition of hexanoic acid during the culturing of the lipid-producing microorganisms, the amount of biomass (dry cell weight) and lipids produced from the microorganisms isolated in Examples 1-2 and Comparative Examples 1-2 was measured. The amount of produced oleic acid was calculated through lipid assay and the amount of consumed glucose was measured form the separated cultures.

[2] = tested on: recombinant Yarrowia lipolytica; test: Culture of recombinant lipid-producing microorganism (peroxisomal biogenesis factor 10 deleted, diacylglycerol acyltransferase overexpressed) in glucose minimal medium with or without hexanoic acid (Test Example 1)
Procedure: (§3) As an exemplary embodiment of the present disclosure, after deleting peroxisomal biogenesis factor 10 (SEQ ID NO 1), which is a lipid degradation-related gene, from the wild-type Yarrowia lipolytica (microorganism accession number ATCC MYA-2613) of Example 1 using the CRISPR/Cas9 system, a lipid-producing microorganism was prepared by overexpressing diacylglycerol acyltransferase, which is a key gene in a lipid-producing metabolic pathway, using a vector (pMCS-12TEF-DGA1-CYC1t, SEQ ID NO 3) comprising a UAS1B enhancer, a TEF (translational elongation factor) promoter and a gene encoding diacylglycerol acyltransferase (SEQ ID NO 2). Then, after inoculating the microorganism to a minimal medium containing glucose as a carbon source (20 g/L glucose, 6.7 g/L yeast nitrogen base, CSM-ura (MP Biomedicals, Solon, USA), pH 6.8 potassium phosphate buffer) and supplemented with 1 g/L hexanoic acid, shaking culture was conducted at 28° C. and 200 rpm. After culturing for 144-168 hours, the microorganism was separated from the culture through centrifugation.
as §3, with “After” for “As an exemplary embodiment of the present disclosure, after”, “buffer),” for “buffer) and supplemented with 1 g/L hexanoic acid,”
as §2

[3] = tested on: transformed Yarrowia lipolytica; test: Oleic acid production depending on concentration of added hexanoic acid, glucose and xylose medium (Test Example 2); conditions: for oleic acid concentration increased by / oleic acid content increased by / oleic acid concentration: 168 hours; for oleic acid concentration increased by / oleic acid content increased by: vs Comparative Example 3; for oleic acid concentration: 0.377 g/L without hexanoic acid
Procedure: Specifically, wild-type Yarrowia lipolytica was transformed in the same manner as in Example 2 and hexanoic acid at 0 g/L (Comparative Example 3), 0.2 g/L (Example 3), 0.6 g/L (Example 4) or 1 g/L (Example 5) was added to a minimal medium containing 20 g/L glucose and 10 g/L xylose as carbon sources (20 g/L glucose, 10 g/L xylose, 6.7 g/L yeast nitrogen base, CSM-ura (MP Biomedicals, Solon, USA), pH 6.8 potassium phosphate buffer). Then, after inoculating the transformed microorganism to the medium, shaking culture was conducted at 28° C. and 200 rpm. After culturing for 168 hours, the microorganism was separated from the culture through centrifugation and the amount of produced lipids was measured from the separated strain. The amount of produced oleic acid was calculated through lipid assay and the amount of glucose and xylose consumed as carbon sources was measured from the separated culture.

[4] = Example 3, 0.2 g/L hexanoic acid
[5] = Example 4, 0.6 g/L hexanoic acid

CCCCCC(=O)O [hexanoic acid]
lipid production (in words) [1]: not increased significantly | consumption rate of the carbon source glucose ([1]; 20 g/L glucose, 28° C., FIG. 1): increased | increase of lipid production as compared to Comparative Example 1 ([1]; 144-168 hours, FIG. 2): about 10% | content of oleic acid in the produced lipids ([1]; FIG. 3): 66% | increase of lipid production as compared to Comparative Example 2 ([2]; 1 g/L hexanoic acid, 144-168 hours, FIG. 2): about 10% | consumption rate of the carbon source glucose ([2]; Example 2, 1 g/L hexanoic acid, 20 g/L glucose, 28° C., FIG. 1): increased | intracellular lipid content ([2]; Example 2, 1 g/L hexanoic acid, 50.3% without hexanoic acid (Comparative Example 2)): 73.8% | content of oleic acid in the produced lipids ([2]; Example 2, 1 g/L hexanoic acid, FIG. 3): ~61% | relative oleic acid production as compared to Comparative Example 1 (wild-type strain, medium not comprising hexanoic acid) ([2]; Example 2, recombinant strain plus 1 g/L hexanoic acid, FIG. 4): about 3.3 times | oleic acid concentration increased by [3, 4]: 10.5% | oleic acid content increased by [3, 4]: 27.4% | oleic acid concentration [3, 4]: 0.417 g/L | oleic acid concentration increased by [3, 5]: 40.3% | oleic acid content increased by [3, 5]: 40.1% | oleic acid concentration [3, 5]: 0.529 g/L | oleic acid concentration increased by ([3]; Example 5, 1 g/L hexanoic acid): 61.2% | oleic acid content increased by ([3]; Example 5, 1 g/L hexanoic acid): 52.1% | oleic acid concentration ([3]; Example 5, 1 g/L hexanoic acid): 0.608 g/L | consumption of xylose ([3]; hexanoic acid added to medium with 20 g/L glucose and 10 g/L xylose, FIG. 8): increased remarkably
